Laboratory results: paper PMC10441178, “Antibiofilm assay for antimicrobial peptides combating the sulfate‐reducing bacteria Desulfovibrio vulgaris” (MicrobiologyOpen, 2023)
Ends that are not written are not given here. Peptide text beside a SMILES is read from it.

Tests used:
in vitro = in vitro ADME; settings: cells or culture medium
Procedure: Figure 4 Long-term stability for the peptide […]1 in Postgate C medium (black) and in the supernatant of a 7-day-old culture of Desulfovibrio vulgaris (gray), analyzed with reversed-phase high-performance liquid chromatography; 100% peptide content corresponds with the peptide content at 0 h. Values are shown as means with standard deviation, n = 3.

[1] = tested on: Desulfovibrio vulgaris biofilm; format: cell-based, Desulfovibrio vulgaris DSM 644; settings: 6 h preincubation, then peptide (1 mg/mL to 1.95 µg/mL, twofold dilution), further 66 h, 37°C anaerobic; polished steel rivets; consistent for OD600 and OD570 (crystal violet); n = 3 per concentration
Procedure: D. vulgaris DSM 644 was cultivated in Postgate medium (DSMZ medium 63) with a modification of 0.004 g/L FeSO4 × 7H2O and 0.3 g/L trisodium citrate. The medium was flushed with nitrogen gas. Incubation was performed at 37°C without shaking. Steel […]660 4 × 15 mm (Würth-Gruppe) served as the growth surface. These were applied in the following pretreated stages: (1) mechanically untreated; (2) roughened: two turns with silicon carbide sandpaper with a grit size of 180; (3) polished: two turns with silicon carbide sandpaper with a sequential grit size of 320, 400, 600, 800, and 1200. The steel […] cleaned in acetone, 2-propanol, and ethanol (Carl Roth GmbH & Co. KG) for 5 min each using an ultrasonic bath, frequency 47 KHz (Branson Ultrasonic Corporation). […] Routine measurements of OD600 and OD570 were performed using the InfiniteM[…] plate reader (Tecan Group AG). For measurements in the anaerobic chamber, OD600 was measured with a Stratus microplate reader (Cerillo Inc.). […] Figure 2 Minimum biofilm inhibitory concentration (MBIC) assay for Desulfovibrio vulgaris: OD600 and OD570 of the challenge plate (72 h incubation) for different concentrations of four antimicrobial peptides: […]-33, Bactenecin, […]1 (black striped), and uninhibited sample (gray); mean and standard deviation were determined by propagation of error; asterisks indicate significant reduction (p = 0.005).

[2] = tested on: Desulfovibrio vulgaris biofilm; format: cell-based, Desulfovibrio vulgaris DSM 644
Procedure: D. vulgaris DSM 644 was cultivated in Postgate medium (DSMZ medium 63) with a modification of 0.004 g/L FeSO4 × 7H2O and 0.3 g/L trisodium citrate. The medium was flushed with nitrogen gas. Incubation was performed at 37°C without shaking. The preparation of the MBEC assay was similar to the MBIC. A measure of 120 μL of bacterial suspension was added per well as growth check (n = 8) or as AMP test (n = 6 per AMP concentration) and 120 μL of medium as sterile control (n = 8). The microtiter plate was incubated for 72 h. Afterward, the […] transferred to the challenge plate consisting of 120 μL of AMP solution (1 mg/mL to 1.95 μg/mL), 120 μL of medium for growth check (n = 8), 120 μL of medium (n = 4) or 120 μL of water (n = 2) or 120 μL of AMP with a concentration of 1 mg/mL (n = 2) for sterile control (in Figure A3, a pipetting scheme is shown). Incubation was performed for 24 h. The […] washed with 0.9% NaCl and half of them were stained with crystal violet (see MBIC). The other half was transferred to the recovery plate containing 120 μL of medium per well and placed in the ultrasonic bath for 30 min. The […] removed and the microtiter plate was incubated for 48 h. After the incubation period of 48 h, OD600 was measured. An overview of the individual steps of the MBIC/MBEC assay is shown in Figure 1.  Figure 5 Minimum biofilm eradication concentration (MBEC) assay for Desulfovibrio vulgaris: OD600 of the recovery plate (48 h incubation) and OD570 of the challenge plate (72 h incubation) for different concentrations of four antimicrobial peptides: […]-33, Bactenecin, […]1 (black striped), and uninhibited sample (gray); mean and standard deviation were determined by error propagation; asterisk indicates significant reduction (p = 0.005).

| Compound | remaining at 168 h (in vitro) [%] | remaining at 504 h (in vitro) [%] | MBIC95% [1] | Lowest peptide concentration with complete removal of the biofilm (total biofilm mass, OD570) ([2]; 72 h biofilm on steel rivets, challenge with peptide, crystal violet staining, OD570) [µg/mL] | Effect on OD600 of recovery plate below the MBEC95% ([2]; peptide concentrations 250 and 125 µg/mL) | Removal of total biofilm mass (OD570) at lower concentrations ([2]; peptide concentrations 250 and 125 µg/mL, crystal violet, OD570) |
| --- | --- | --- | --- | --- | --- | --- |
| FFGKVLKLIRKIF [DASamP1] | 70 | 56 | – | – | – | – |
| CC[C@H](C)[C@H](NC(=O)[C@H](CCCNC(=N)N)NC(=O)[C@H](CS)NC(=O)[C@H](CC(C)C)NC(=O)[C@@H](N)CCCNC(=N)N)C(=O)N[C@H](C(=O)N[C@H](C(=O)N[C@H](C(=O)N[C@@H](CCCNC(=N)N)C(=O)N[C@H](C(=O)N[C@@H](CS)C(=O)N[C@@H](CCCNC(=N)N)C(=O)O)C(C)C)[C@@H](C)CC)C(C)C)C(C)C [Bactenecin] (H-RLCRIVVIRVCR-OH; N-terminus and C-terminus assumed) | – | – | no biofilm inhibitory effects | 500 | partial effect | partial removal |
